Measurements from PMC6382835, “A critical evaluation of TRPA1-mediated locomotor behavior in zebrafish as a screening tool for novel anti-nociceptive drug discovery” (Scientific Reports, 2019).

Test system: C57BL/6 mice
Assay: Von Frey test of mechanical hypersensitivity
Type: in vivo, Mice (Mus musculus)
Description: We utilized WT C57BL/6 mice purchased from Envigo (Indianapolis, IN, USA). Total sixteen adult male mice (8–9 weeks, 22 ± 2 g) were housed in four ventilated Plexiglas cages (4 mice per cage). Four mice were tested in each group. Mice are maintained at temperature (21 °C) in an animal housing facility accredited by the Association for Assessment and Accreditation of Laboratory Animal Care with a reversed 12-hour dark-light cycle (lights off at 1000, lights on at 2200). This study was carried out in accordance with the recommendations of the National Institutes of Health Guide for the Care and Use of Laboratory Animals. The protocol (#1201000592 by Y.F.L. for Zebrafish, and #1605001408 by R.M.vR for mice) was approved by the Purdue University Institutional Animal Care and Use Committee.
Von Frey filaments (2.44 (0.04 g)–4.31 (2 g)) and a grid platform (#58011 and #57816, Stoelting, WI, USA) were used to test mechanical hypersensitivity of mice. A modified up-and-down method was utilized as previously described. […] Drug-induced mechanical hypersensitivity was measured 30 minutes after the second injection. […]
All data are presented as means ± standard error of the mean (SEM). For our in vitro statistical analysis, AUC of calcium influx (RFU) was measured to plot dose-response curves, which were further analyzed by nonlinear regression analysis. […] EC50 values of the dose-response curves were further used to plot Schild curves, and the curves were analyzed with linear regression analysis. For the mice von Frey test, mechanical thresholds were analyzed with two-way ANOVA followed by a Bonferonni test for multiple comparison analysis. […] AUC of all curves were measured and analyzed by one-way ANOVA. […] For our time-course average displacement graph, we used 2nd degree polynomial smoothing for a better representation; however, we used data before smoothing for all statistical analysis and quantification. All in vitro and in vivo data were evaluated using GraphPad Prism 7 (GraphPad Software, La Jolla, CA) unless it stated otherwise.

| Compound | mechanical thresholds of von Frey filaments, pre- vs post-drug (ASP7663 1 mg/kg i.p., measured 30 minutes after injection) | block of ASP7663-induced mechanical hypersensitivity (HC-030031 100 mg/kg p.o. 30 min before ASP7663 1 mg/kg i.p.) | mechanical thresholds of von Frey filaments, pre- vs post-drug (HC-030031 100 mg/kg p.o. alone) |
| --- | --- | --- | --- |
| CC(C)CN1C(=O)/C(=C/C(=O)O)c2cccc(F)c21 [ASP7663] | significantly decreased mechanical thresholds |  |  |
| CC(C)c1ccc(NC(=O)Cn2cnc3c2c(=O)n(C)c(=O)n3C)cc1 [HC-030031] |  | blocked mechanical hypersensitivity induced by ASP7663 | did not show a statistical significance between pre- and post-drug mechanical thresholds |
